Laboratory results: US20260265216A1, “NOVEL THIOREDOXIN REDUCTASE INHIBITORS” (GENEXPLAIN GMBH, priority 2021, published 2026)

Experiments:
Format in all cases: cell-based
C33A = assay: Growth suppression, cancer cell line panel (resazurin); conditions: 0.4-25.6 μM, 48 hours
Method: (§1) Breast, colon, ovarian, cervical, liver and lung carcinoma cell lines were grown in DMEM supplemented with 10% FBS, and antibiotics were cultured at 37° C. and 5% CO2. Osteosarcoma, melanoma, lymphoma, neuroblastoma and leukemia cell lines were cultured in RPMI 1640 with 10% FBS and antibiotics. An oxygen concentration of 0.3% was obtained by flushing a sealed box containing the cells with premixed gas composed of 95% nitrogen (N2) and 5% CO2 (AGA AB, Sweden). To obtain an oxygen concentration of 0.05%, the cells were flushed with the premixed gas continuously throughout the experiment.
(§2) Cells were grown in 96-well plates at a density of 3000 cells per well with or without doxycycline and treated with compounds. After 48 hours of incubation the proliferative cell reagent resazurin (Thermo Fisher Scientific) was added to the cells. The degree of resazurin reduction, which reflects cell viability, was measured by microplate reader by monitoring the absorbance at 570 nm and 600 nm, according to the manufacturer.
(§3) The panel of cancer cell lines, including carcinomas of breast (MDA-MB231, SKBR3, T47D, MCF7; BT549, BT20, MDA-MB468), colon, (SW480, RKO, HT29, HCT116) ovarian (OVCAR3, OVCAR4, OVCAR8), cervical (SW756, C33A), liver (HEPG2) and lung (H23), osteosarcoma (SJSA and U2OS), melanoma (ME180), lymphoma (Raji, HDLM2), neuroblastoma (SKNAS, IMR32) and leukemia (NB4, K562) were treated with increasing concentrations of 1d*HCl: 0.4; 0.8; 1.6; 3.2; 6.4; 12.8; 25.6 μM in 96-well plates. After 48 hours of incubation the proliferative cell reagent resazurin was added to the cells. The degree of resazurin reduction, which reflects cell viability, was measured by microplate reader by monitoring the absorbance at 570 nm and 600 nm, according to the manufacturer, and the IC50 and AUC (area under curve) were determined (Table 2). As could be seen in Table 2, 1d*HCl suppressed the growth of cancer cell lines of a different origin, including carcinomas, osteosarcomas, melanoma, lymphoma, leukemia and neuroblastoma. These findings open up a possibility of the application of the present invention in anti-cancer therapy in a broad range of tumor types.

IMR32 = assay: as above; conditions: IMR32, 0.4-25.6 μM, 48 hours
Method: as §1, §2, §3

OVCAR3 = assay: as above; conditions: OVCAR3, 0.4-25.6 μM, 48 hours
Method: as §1, §2, §3

OVCAR4 = assay: as above; conditions: OVCAR4, 0.4-25.6 μM, 48 hours
Method: as §1, §2, §3

U2OS = assay: as above; conditions: 0.4-25.6 μM, 48 hours
Method: as §1, §2, §3

MCF7 cells = assay: Apoptosis detection by FACS (Annexin V); conditions: 2 μM, 24 h
Method: Cells were placed on 12-well plate at a density of 30000/cm^2 and treated with compounds. After 24 h incubation cells were harvested by trypsinization, fixed with 70% ethanol, treated with RNase A (0.25 mg/ml) and stained with Annexin V according to manufacturer's instructions (Thermo Fisher Scientific). Samples were analyzed on a Becton Dickinson FACScan. Data were analyzed by the CellQuest software, version 3.2.1.
To find out whether the growth suppression by 1d*HCl is due to triggering cell death by apoptosis, we performed the Annexin V-mediated staining of phosphatidylserine, exposed on surface of cells undergoing apoptotic cell death. We detected Annexin V-positive cells using FACS.

HCT116 cells = assay: Growth suppression in the presence of antioxidant NAC; conditions: HCT116, 5 mM NAC 16 h pre-treatment; 2.5, 5, 10 μM; 24 h
Method: To find out whether oxidative stress plays a role in cancer cell death induced by 1d*HCl, we tested the extent of growth suppression by the treatment in the presence of antioxidant N-acetyl cysteine (NAC), which neutralize ROS. We pre-treated HCT116 cells with 5 mM NAC. After 16 h of incubation with NAC, we treated HCT116 cells with 2.5, 5, and 10 μM of 1d*HCl. We measured the growth suppression 24 h after treatment. […] Thus, we conclude that the mechanism of cancer cell growth suppression is dependent on the induction of oxidative stress by the compounds of the present invention.

[1] = Growth suppression with selenium in culture medium; conditions: selenium added to culture medium
Description: To find out whether the inhibition of TrxR1 is the major mechanism of action of 1d*HCl, we addressed the question, whether stimulation of TrxR1 activity will decrease the growth suppression activity of 1d*HCl. Since TrxR is a selenium-containing enzyme and the concentration of selenium is rate-limiting for TrxR1, we added selenium to culture medium to test whether selenium will alleviate the growth suppression by 1d*HCl.

cancer cells = assay: Cell growth assay, combination with BSO; conditions: 5 μM 1d*HCl and 50 μM BSO
Method: Further, we tested whether the inhibition of GR by BSO will have additive effect with 1d*HCl. If 1d*HCl mechanism of action includes inhibition of GR, BSO will not have an additive effect. We used a range of concentrations of 1d*HCl and BSO in cell growth assays. […] Next, we tested whether the prevention of oxidative stress by NAC will affect the growth suppression by the combination of 1d*HCl and BSO. In the presence of NAC we observed the additive effect of 1d*HCl with 50 μM BSO only at twice higher dose of 1d*HCl-10 μM.

With Cl.N#Cc1c(-c2cccnc2)[n+]([O-])c2cc(F)c(N3CCOCC3)cc2[n+]1[O-] [Compound 1d*HCl, 6-Fluoro-7-(morpholin-4-yl)-3-(pyridin-3-yl)quinoxaline-2-carbonitrile-1,4-dioxide hydrochloride] the “AUC (area under curve)” value (C33A) was 21, the “AUC (area under curve)” value (IMR32) was 6.40 and the “AUC (area under curve)” value (OVCAR3) was 4.813. The “AUC (area under curve)” value (OVCAR4) was 3.7, the “AUC (area under curve)” value (U2OS) was 2.10 and the “Annexin V-positive cells (apoptosis)” value (MCF7 cells) was “induced Annexin V-positive cells statistically significantly”. For the same molecule, the “growth suppression after prevention of ROS accumulation by NAC” value (HCT116 cells) was “almost completely abolished the growth suppression”, the “growth suppression in the presence of selenium” value [1] was “less efficient in the presence of selenium” and the “effect of combination with BSO on cell growth” value (cancer cells) was “have an additive effect and completely eradicated cancer cells”.
